Like-named read-outs stand apart in the source and are kept apart here.
Legend:
5-HT2A receptors [1] = biological target: T1, 5-HT2A receptors (Homo sapiens, UniProt P28223); test: Binding to human 5-HT2A receptors expressed in mammalian cells; parameters: expressed in transfected cells; host or cells: CHO cells; conditions: mammalian cells expressing human 5-HT2A receptors
SERT = biological target: T2, SERT (Rattus norvegicus, UniProt P31652); test: Serotonin (5-HT) reuptake inhibition, rat cortical synaptosomes; type: biochemical; conditions: rat cortical synaptosome preparation
T2 construct: rat cortical synaptosome preparation; from tissue; host or cells: rat cortical synaptosomes
T2 sequence (P31652 whole entry): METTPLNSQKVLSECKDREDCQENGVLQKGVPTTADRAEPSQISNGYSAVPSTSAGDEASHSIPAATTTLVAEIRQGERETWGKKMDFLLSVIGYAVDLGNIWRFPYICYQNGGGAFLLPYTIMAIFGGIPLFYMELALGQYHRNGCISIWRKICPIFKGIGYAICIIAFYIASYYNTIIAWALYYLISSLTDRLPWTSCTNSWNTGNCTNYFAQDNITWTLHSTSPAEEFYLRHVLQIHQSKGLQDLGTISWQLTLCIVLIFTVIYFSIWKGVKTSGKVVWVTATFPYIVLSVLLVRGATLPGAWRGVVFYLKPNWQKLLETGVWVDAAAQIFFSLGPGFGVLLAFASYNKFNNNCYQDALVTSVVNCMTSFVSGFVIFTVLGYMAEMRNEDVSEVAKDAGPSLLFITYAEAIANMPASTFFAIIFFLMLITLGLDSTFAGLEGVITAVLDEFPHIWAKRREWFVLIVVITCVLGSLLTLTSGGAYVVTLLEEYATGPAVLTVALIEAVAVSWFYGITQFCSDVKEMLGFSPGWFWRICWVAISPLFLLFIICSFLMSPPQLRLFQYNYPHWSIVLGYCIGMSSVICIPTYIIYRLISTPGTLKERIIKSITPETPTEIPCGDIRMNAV
Method: (§1) Non-specific uptake was determined in the presence of 10 μM talsupram or citalopram and the total uptake was determined in the presence of buffer. Aliquots were incubated for 15 minutes at 37° C. […] Filters were washed and counted in a Wallac MicroBeta counter.

[2] = system: extracellular dopamine (DA) levels in the rat frontal cortex; test: Microdialysis, extracellular dopamine levels in rat frontal cortex; type: in vivo; conditions: single injection
Method: Male Sprague-Dawley rats, initially weighing 275-300 g, were used. The animals were housed under a 12-hr light/dark cycle under controlled conditions for regular in-door temperature (21±2° C.) and humidity (55±5%) with food and tap water available ad libitum. For the three-day treatment experiments osmotic minipumps (Alzet, 2ML1) were used. The pumps were filled under aseptic conditions and implanted subcutaneously under sevoflurance anaesthesia. The experiments were carried out with the minipumps on board. Blood samples for measuring plasma levels of the test compound after 3 days of treatment were collected at the end of the experiments. Animals were anaesthetised with hypnorm/dormicum (2 ml/kg) and intracerebral guide cannulas (CMA/12) were stereotaxically implanted into the hippocampus, positioning the dialysis probe tip in the ventral hippocampus (co-ordinates: 5.6 mm […] to bregma, lateral—5.0 mm, 7.0 mm ventral to dura or in the frontal cortex (co-ordinates: 3.2 mm anterior to bregma; lateral, 3.0 mm; 4.0 mm ventral to dura). Anchor screws and acrylic cement were sued for fixation of the guide cannulas. The body temperature of the animals was monitored by rectal probe and maintained at 37° C. The rats were allowed to recover from surgery for 2 days, housed singly in cages. […]

[3] = system: extracellular levels of acetylcholine in the prefrontal cortex and ventral hippocampus; test: Microdialysis, extracellular acetylcholine levels in freely-moving rats; type: in vivo, rat; conditions: FIGS. 1a and 1b
Method: Male Sprague-Dawley rats, initially weighing 275-300 g, were used. The animals were housed under a 12-hr light/dark cycle under controlled conditions for regular in-door temperature (21±2° C.) and humidity (55±5%) with food and tap water available ad libitum.
Rats were anaesthetised with hypnorm/dormicum (2 ml/kg) and intracerebral guide cannulas (CMA/12) were stereotaxically implanted into the hippocampus, aiming to position the dialysis probe tip in the ventral hippocampus (co-ordinates: 5.6 mm posterior to bregma, lateral—5.0 mm, 7.0 mm ventral to dura or in the frontal cortex (co-ordinates: 3.2 mm anterior to bregma; lateral, 0.8 mm; 4.0 mm ventral to dura). Anchor screws and acrylic cement were used for fixation of the guide cannulas. The body temperature of the animals was monitored by rectal probe and maintained at 37° C. The rats were allowed to recover from surgery for 2 days, housed singly in cages. […]
Concentration of acetylcholine (ACh) in the dialysates was analysed by means of HPLC with electrochemical detection using a mobile phase consisting of 100 mM disodium hydrogenphosphate, 2.0 mM octane sulfonic acid, 0.5 mM tetramethylammonium chloride and 0.005% MB (ESA), pH 8.0. […] The latter was detected electrochemical by using a platinum electrode (Analytical cell: ESA, model 5040). […]

[4] = biological target: T3, human-homomeric 5-HT3A receptors (Homo sapiens, UniProt P46098); test: Electrophysiology in oocytes expressing human-homomeric 5-HT3A receptors; type: cell-based
T3 sequence (P46098 24-478): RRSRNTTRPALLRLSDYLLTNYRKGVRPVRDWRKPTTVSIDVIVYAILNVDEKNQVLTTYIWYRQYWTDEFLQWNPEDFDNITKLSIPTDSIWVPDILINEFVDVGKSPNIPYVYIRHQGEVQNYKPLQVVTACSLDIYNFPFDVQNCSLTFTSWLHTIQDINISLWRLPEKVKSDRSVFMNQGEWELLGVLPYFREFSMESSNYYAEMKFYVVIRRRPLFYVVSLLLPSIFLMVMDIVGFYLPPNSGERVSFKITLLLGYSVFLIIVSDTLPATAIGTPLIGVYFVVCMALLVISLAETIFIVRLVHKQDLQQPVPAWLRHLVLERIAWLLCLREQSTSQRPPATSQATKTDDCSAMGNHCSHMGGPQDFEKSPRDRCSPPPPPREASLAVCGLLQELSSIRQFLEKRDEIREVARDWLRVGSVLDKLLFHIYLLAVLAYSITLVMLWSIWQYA
Method: The experiments were carried out as follows. […] Oocytes avoid of the follicle layer were selected and incubated for 24 hours in Modified Barth's Saline buffer [88 mM NaCl, 1 mM KCl, 15 mM HEPES, 2.4 mM NaHCO3, 0.41 mM CaCl2, 0.82 mM MgSO4, 0.3 mM Ca(NO3)2] supplemented with 2 mM sodium pyruvate, 0.1 U/l penicillin and 0.1 μg/l streptomycin. Stage […] oocytes were identified and injected with 12-48 nl of nuclease free water containing 14-50 pg of cRNA coding for human 5-HT3A receptors receptors and incubated at 18° C. until they were used for electrophysiological recordings (1-7 days after injection). […] Cells were impaled with agar plugged 0.5-1 MΩ electrodes containing 3 M KCl and voltage clamped at −90 mV by a GeneClamp 500B amplifier. The oocytes were continuously perfused with Ringer buffer and the drugs were applied in the perfusate.

α1A receptor = biological target: T4, α1A receptor (Homo sapiens, UniProt P35348); test: α1A receptor affinity, [3H]-Prazosin binding to membranes; conditions: Ki by Cheng Prusoff, read-out: Ki, affinity for α1A receptors
T4 sequence (P35348 1-466): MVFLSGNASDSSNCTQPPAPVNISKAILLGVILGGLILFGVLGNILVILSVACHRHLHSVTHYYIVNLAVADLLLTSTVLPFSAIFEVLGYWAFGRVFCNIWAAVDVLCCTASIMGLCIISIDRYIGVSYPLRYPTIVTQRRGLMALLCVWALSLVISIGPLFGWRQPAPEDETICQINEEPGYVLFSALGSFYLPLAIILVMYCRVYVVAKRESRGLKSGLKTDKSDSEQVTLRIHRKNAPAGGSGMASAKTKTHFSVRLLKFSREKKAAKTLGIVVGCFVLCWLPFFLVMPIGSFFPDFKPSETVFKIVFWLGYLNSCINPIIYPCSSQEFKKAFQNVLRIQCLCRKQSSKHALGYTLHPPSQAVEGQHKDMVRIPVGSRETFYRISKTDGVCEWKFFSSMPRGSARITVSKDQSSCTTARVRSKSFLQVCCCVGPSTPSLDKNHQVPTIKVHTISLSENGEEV
Method: On the day of the experiments membranes (see below for description of membrane preparation) are thawed and homogenized in buffer using an ultra turrax and diluted to the desired concentration (5 μg/well˜5/900 μl, store on ice until use). The experiment is initiated by mixing of 50 μl test compound, 50 μl [^3H]-Prazosin and […], and the mixture is incubated for 20 minutes at 25° C. Non-specific binding is determined in the presence of 10 μM WB-4101 and the total binding is determined in the presence of buffer. After the incubation, bound ligand is separated from unbound by filtration through Unifilter GF/B, presoaked in 0.1% PEI for 30 minutes, using a Tomtec Cell Harvester program (D4.2..4). 96 well. Filters are washed 3 times with 1 ml ice-cold buffer, dried at 50° C. and 35 μl scintillation liquid/well is added to the filters. Bound radioactivity is counted in a Wallac OY 1450 MicroBeta. […] Concentrations of compound covering 2 decades were used to calculate the IC50 value.

[5] = system: formalin model of neuropathic pain; test: Formalin model of neuropathic pain in mice; type: in vivo, C57/B6 mice
Method: The irritation caused by the formalin injection elicits a characteristic biphasic behavioural response, as quantified by the amount of time spent licking the injured paw. The first phase (—O—10 minutes) represents direct chemical irritation and nociception, whereas the second (−20-30 minutes) is thought to represent pain of neuropathic origin. The two phases are separated by a quiescent period in which behaviour returns to normal. Measuring the amount of time spent licking the injured paw in the two phases assesses the effectiveness of test compounds to reduce the painful stimuli. Eight C57/B6 mice (ca. 25 g) were tested per group. […] The amount of compound administered is calculated as the free base.

5-HT2A receptors [6] = biological target: T1, 5-HT2A receptors; test: Antagonism of 5-HT evoked Ca2+ release in CHO cells expressing human 5-HT2A receptors (FLIPR); type: cell-based; parameters: expressed in transfected cells; host or cells: CHO cells
Method: The experiment was carried out as follows. 2 or 3 days before the experiment CHO cells expressing 250 fmol/mg human 5-HT2A receptors are plated at a density sufficient to yield a mono-confluent layer on the day of the experiment. The cells are dye loaded (Ca^2+-kit from Molecular Devices) for 60 minutes at 37° C. in a 5% CO2 incubator at 95% humidity. Basal fluorescence was monitored in a fluorometric imaging plate reader or FLIPR^384 from Molecular Devices (Sunnyvale, Calif.) with an excitation wavelength of 488 nm and an emission range of 500 to 560 nm. […] The variation in basal fluorescence should be less than 10%. […] IC; values were calculated using Cheng-Prusoff equation.

NET = biological target: T5, NET (Rattus norvegicus, UniProt Q63380); test: Norepinephrine (NE) reuptake inhibition, rat cortical synaptosomes; type: biochemical; conditions: rat cortical synaptosome preparation; read-out: IC50 at NET ([3H]NE uptake)
T5 construct: rat cortical synaptosome preparation; from tissue; host or cells: rat cortical synaptosomes
T5 sequence (Q63380 1-617): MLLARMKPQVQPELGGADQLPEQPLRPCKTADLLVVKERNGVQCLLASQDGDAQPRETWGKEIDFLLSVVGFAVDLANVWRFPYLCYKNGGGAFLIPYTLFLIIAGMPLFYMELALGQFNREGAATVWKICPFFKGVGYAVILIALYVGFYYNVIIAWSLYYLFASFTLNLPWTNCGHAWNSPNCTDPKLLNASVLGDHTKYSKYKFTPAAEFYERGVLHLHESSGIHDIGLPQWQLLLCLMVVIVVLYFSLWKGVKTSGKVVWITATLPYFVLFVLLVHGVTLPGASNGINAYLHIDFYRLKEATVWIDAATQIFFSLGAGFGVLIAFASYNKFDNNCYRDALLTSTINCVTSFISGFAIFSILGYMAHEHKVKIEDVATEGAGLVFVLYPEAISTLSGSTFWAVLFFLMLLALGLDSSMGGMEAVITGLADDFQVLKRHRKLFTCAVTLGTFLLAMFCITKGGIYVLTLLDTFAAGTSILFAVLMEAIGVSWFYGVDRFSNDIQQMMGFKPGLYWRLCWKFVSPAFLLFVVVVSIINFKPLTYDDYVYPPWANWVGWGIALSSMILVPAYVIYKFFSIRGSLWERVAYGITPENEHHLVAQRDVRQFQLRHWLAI
Method: as §1

5-HT2A receptors [7] = biological target: T1, 5-HT2A receptors; test: 5-HT2A receptor affinity (MDL Pharmaservices catalogue number 271650); type: binding; parameters: purchased MDL Pharmaservices 271650

T1 sequence (P28223 whole entry): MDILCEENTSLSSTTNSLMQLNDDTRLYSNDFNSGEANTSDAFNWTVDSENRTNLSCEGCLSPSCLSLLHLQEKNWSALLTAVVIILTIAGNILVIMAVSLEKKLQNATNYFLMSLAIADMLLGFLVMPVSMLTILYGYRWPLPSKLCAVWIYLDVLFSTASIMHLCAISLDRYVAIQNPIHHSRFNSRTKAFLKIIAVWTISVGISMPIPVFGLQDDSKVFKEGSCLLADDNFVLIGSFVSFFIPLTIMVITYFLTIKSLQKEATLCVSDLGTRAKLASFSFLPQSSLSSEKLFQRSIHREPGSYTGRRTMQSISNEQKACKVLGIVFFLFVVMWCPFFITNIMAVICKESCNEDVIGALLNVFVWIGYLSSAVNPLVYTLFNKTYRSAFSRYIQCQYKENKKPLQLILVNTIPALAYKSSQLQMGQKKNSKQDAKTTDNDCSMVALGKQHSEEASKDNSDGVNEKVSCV

Cc1ccc(Sc2ccccc2C2CCNCC2)cc1 [compound I, 4-[2-(4-methylphenylsulfanyl)phenyl]piperidine]
Ki (5-HT2A receptors [1]): < 100 nM | IC50 (SERT): 8 nM | enhancement of DA levels above baseline levels ([2]; 8.9 mg/kg s.c.): approximately 100% | enhancement of DA levels above baseline levels ([2]; 18 mg/kg s.c.): ~150% | extra-cellular acetylcholine levels in the brain [3]: dose dependent increase | Kb ([4]; 0.1 nM-100 nM, read-out: Kb, antagonism in low concentrations): ~2 nM | EC50 ([4]; 100-100000 nM, read-out: EC50, agonistic properties in higher concentrations): ~2600 nM | maximal current, % of the maximal current elicited by 5-HT itself ([4]; agonism at higher concentrations (100-100000 nM)): 70-80% | IC50 ([4]; read-out: IC50, antagonism in low concentrations): ~10 nM | Ki (α1A receptor): 34 nM | time spent licking the injured paw, 0-5 minutes ([5]; 1.0 mg/kg, first phase): 37 s | time spent licking the injured paw, 20-30 minutes ([5]; 1.0 mg/kg, second phase): 43 s | time spent licking the injured paw, 0-5 minutes ([5]; 10 mg/kg, first phase): 37 s | effect in the first phase (direct chemical irritation and nociception) ([5]; first phase, in words): little effect | time spent licking paws in the second phase ([5]; second phase, in words): clear and dose dependent decrease | Kb (5-HT2A receptors [6]; Kb, antagonism of 5-HT evoked release of Ca2+ from intracellular stores, functional assay): 67 nM | Kb (5-HT2A receptors [6]; schild analysis, read-out: Kb, schild analysis (competitive antagonism)): 100 nM | IC50 (NET): 23 nM | Ki (5-HT2A receptors [7]): 54 nM
